Laboratory results reported in US20240335548A1, “MACROMOLECULES” (Starpharma Pty Ltd, priority 2011, published 2024).

Assays:
[1] = Pharmacokinetic analysis, plasma half-life after IV administration; details: tritium labelled, IV administration into rats
Experimental: The plasma half-lives of tritium labelled docetaxel and the construct from Experiment 8 (c) (prepared using tritium labelled docetaxel) after IV administration into rats were determined (Kaminskas, L. M., Boyd, B. J., Karellas, P., Krippner, G. Y., Lessene, R., Kelly, B and Porter, C. J. H. “The Impact of Molecular Weight and PEG Chain Length on the Systemic Pharmacokinetics of PEGylated Poly-L-Lysine Dendrimers” Molecular Pharm. 2008, 5, 449-463).

[2] = tested on: PC-3 (Prostate); experiment: Cell growth inhibition SRB assay; type: cell-based
Experimental: (§1) All solutions were prepared in saline (except docetaxel which was made in ethanol). All solutions were stored at −20° C. All values were based on the equivalent drug loading.

[3] = tested on: H460 (Lung); experiment: Cell growth inhibition SRB assay; type: cell-based
Experimental: as §1

[4] = tested on: ES2 (Ovarian); experiment: Cell growth inhibition SRB assay; type: cell-based
Experimental: as §1

[5] = tested on: MDA-MB-231 tumours; experiment: Xenograft MDA-MB-231 efficacy study; type: in vivo, female Balb/c nude mice
[6] = Plasma stability study: docetaxel release in mouse plasma; type: in vitro ADME; details: 37° C.
Experimental: Protocol: To 0.5 mL of mouse plasma was added 0.1 mL of dendrimer solution (2 mg/mL, drug equivalent in saline). The mixtures were vortexed (30 s) then incubated at 37° C. At various timepoints (0.5, 2.5, 4.5, 22 hours) 0.1 mL aliquots were removed and added to 0.2 mL ACN. The resulting mixtures were vortexed (30 s), centrifuged (10 min, 4° C.) filtered and analysed by HPLC (C8, 3.9×150 mm, 5 μm, wavelength=243 nm, 10 μL injections, gradient: 40-80% ACN/H2O (1-7 min), 80% ACN (7-9 min), 80-40% ACN (9-11 min), 40% ACN (11-15 min), 10 mM ammonium formate, pH 7.40) which when compared against a standard (2 mg//mL) provided the concentration of free docetaxel in the sample.

[7] = day 16, one day after final dose
Experimental: The 20 mice were randomised into 5 groups of four mice (mean tumour volume ˜90 mm^3). Animals were eye bled in the morning for baseline blood cell counts and then drug dosing commenced later that day (day 1). […] A second eye bleed was performed on day 11 (Table 7 A-C). Mice were killed one day following the final drug dose (day 16).

[8] = Water solubility study on drug loaded dendrimers; type: physicochemical; details: for Water solubility of dendrimer: deionised water, until full dissolution; for Equivalent drug solubility on dendrimer: water solubility x % drug loading/100
Experimental: Protocol: To 30 mg of dendrimer (freeze-dried from water) was added 100 μL of deionised water. After mixing for 10 minutes, additional aliquots of water (10-30 μL per addition) were added with vortexing and incubation for 10 mins until full dissolution was obtained. This amount is represented in Table 1 as the water solubility of the dendrimer. The equivalent drug solubility is determined by multiplying the % drug loading/100 and is represented in Table 1 (column 3) as Equivalent drug solubility on dendrimer. Finally, the fold increase is obtained by dividing the Equivalent drug solubility on dendrimer by the solubility of the drug and is represented in Table 1 (column 4).

[9] = tested on: MDA-MB-231 tumour xenografts; experiment: MDA-MB-231 mouse xenograft breast cancer model, SPL8996, SPL9005 and SPL9006 study; details: 28 mg/kg
Experimental: (§3) References to amounts dosed in mg/kg for the dendrimeric compounds are to the amounts of cabazitaxel that may theoretically be released by the dendrimers.
(§4) Each of the dendrimers was pre-weighed in glass vials and stored at 20° C. until use, and dissolved in saline immediately prior to dosing. Cabazitaxel was purchased from a commercial supplier.
(§5) Female Balb/c nude mice (age 7 weeks) were inoculated subcutaneously on the flank with 3.5×10^6 MDA-MB-231 cells in PBS:Matrigel (1:1). Mice were weighed and tumours measured twice weekly using electronic callipers. Tumour volume (mm^3) was calculated as length (mm)/2×width (mm)^2.
Mice received a small dish containing a food supplement (mixed with food dust) daily. The experiment was ended on day 150 or earlier if an ethical endpoint was met.

[10] = Toxicity studies in rats (neutropenia, hematology, microscopic changes); details: 2.5 mg/kg
Text: References to amounts dosed in mg/kg for the dendrimeric compound are to the amounts of cabazitaxel that may theoretically be released by the dendrimer.

[11] = tested on: MDA-MB-231 tumour xenografts; experiment: MDA-MB-231 mouse xenograft breast cancer model, SPL9048 study
Experimental: as §3, §4, §5
Mice received a small dish containing a food supplement (mixed with food dust) daily. The experiment was ended on day 113 or earlier if an ethical endpoint was met.

[12] = Particle sizing using Dynamic Light Scattering; type: physicochemical
[13] = tested on: A549; experiment: IC50 using the MTT assay; type: cell-based; details: 72 hours
Experimental: (§2) The IC50 using the MTT assay [Wilson, Anne P. (2000). “Chapter 7: Cytotoxicity and viability”. In Masters, John R. W. Animal Cell Culture: A Practical Approach. Vol. 1 (3rd ed.). Oxford: Oxford University Press] was determined against various cancer cell lines after 72 hours.

[14] = tested on: DU-145; experiment: IC50 using the MTT assay; type: cell-based; details: 72 hours
Experimental: as §2

[15] = tested on: H460; experiment: IC50 using the MTT assay; type: cell-based; details: 72 hours
Experimental: as §2

[16] = tested on: PC-3; experiment: IC50 using the MTT assay; type: cell-based; details: 72 hours
Experimental: as §2

[17] = tested on: A2780; experiment: IC50 using the MTT assay; type: cell-based; details: 72 hours
Experimental: as §2

[18] = tested on: MCF-7; experiment: IC50 using the MTT assay; type: cell-based; details: 72 hours
Experimental: as §2

[19] = tested on: HCT-116; experiment: IC50 using the MTT assay; type: cell-based; details: 72 hours
Experimental: as §2

[20] = tested on: HT-29; experiment: IC50 using the MTT assay; type: cell-based; details: 72 hours
Experimental: as §2

## BHALys[Lys]32[α-TDA-DTX]32[ε-PEG1100]32 [Example 8 (c)]
[1]
  plasma half-life: approximately 30 hour
[2]
  GI50: 9.5 nM
[3]
  GI50: 7 nM
[4]
  GI50: 12 nM
[5]; Day 1, i.v. day 1, 8, 15, docetaxel 15 mg/kg, Exp 3 (b) 20 mg/kg, Exp 8 (c) […] mg/kg
  Mean tumour Volumne mm^3 (sd): 111.73 (6.41), mm^3
[5]; Day 9, same doses
  Mean tumour Volumne mm^3 (sd): 108.86 (9.31), mm^3
[5]; Day 19, same doses
  Mean tumour Volumne mm^3 (sd): 30.59 (1.64), mm^3
[5]; Day 29, same doses
  Mean tumour Volumne mm^3 (sd): 11.58 (1.2), mm^3
[5]; Day 40, same doses
  Mean tumour Volumne mm^3 (sd): 5.75 (0.92), mm^3
[5]; Day 61, same doses
  Mean tumour Volumne mm^3 (sd): 4 (0), mm^3
[5]; Day 81, same doses
  Mean tumour Volumne mm^3 (sd): 0.5 (0), mm^3
[5]; Day 100, same doses
  Mean tumour Volumne mm^3 (sd): 1.67 (0.74), mm^3
[5]; Day 120, same doses
  Mean tumour Volumne mm^3 (sd): 16.2 (10.24), mm^3
[6]; 0.5 hours
  Docetaxel release in plasma: 4.5 percentage of total docetaxel
[6]; 2.5 hours
  Docetaxel release in plasma: 13.5 percentage of total docetaxel
[6]; 22 hours
  Docetaxel release in plasma: 43 percentage of total docetaxel
[7]
  Mean Tumour Weights (g) (sd): 0.033 g
[8]
  Water solubility of dendrimer: 131 mg/mL
  Equivalent drug solubility on dendrimer: 41 mg/mL

## N3-PEG24-CO(NPN)[Lys]32[α-TDA-Cabazitaxel]32†[ε-PEG˜1100]32‡ [SPL8996]
[9]
  tumour regrowth at the conclusion of the study on day 150: one tumour in the SPL-8996 group which began to regrow by day 77

## BHALys[Lys]32[α-DGA-Cabazitaxel]32†[ε-PEG˜2100]32‡ [SPL9048]
[10]
  toxicity compared to Jevtana®/cabazitaxel: Reduced toxicity
[11]; FIG. 1, i.v. days 1, 8 and 15, SPL-9048 9 and 10 mg/kg
  antitumour efficacy (tumour response): complete tumour regression
[11]; FIG. 2, body weight
  tolerability: overall well tolerated
[11]; both doses (9 and 10 mg/kg)
  survival compared with cabazitaxel: significantly extended survival beyond that of cabazitaxel

## BHALys[Lys]32[α-TDA-DTX]32[ε-PolyPEG2000]32 [Example 19]
[12]
  particle size, range of concentration dependent averages: 10.9-15.5 nm
[13]
  IC50: 7.7 nM
[14]
  IC50: 15.5 nM
[15]
  IC50: 23.7 nM
[16]
  IC50: 7.4 nM
[17]
  IC50: 6.3 nM
[18]
  IC50: 6.3 nM
[19]
  IC50: 6.5 nM
[20]
  IC50: 5.9 nM
[8]
  Water solubility of dendrimer: 477 mg/mL
  Equivalent drug solubility on dendrimer: 109 mg/mL
[8]; equivalent drug solubility divided by solubility of the drug
  Fold increase in drug solubility: 21900
